Measurements published in PubChem BioAssay (NCI).
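Exposure lasted 48 hours, with cells grown in 96-well plates and compounds tested at five concentrations. TGI marks complete inhibition of growth.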

Key:
Assay in all cases: inhibition of tumour cell growth, NCI panel, 48 h
SR leukemia = tested on: SR leukemia
SK-MEL-5 melanoma = tested on: SK-MEL-5 melanoma
SN12C renal = tested on: SN12C renal
MDA-MB-231 breast = tested on: MDA-MB-231 breast
MOLT-4 leukemia = tested on: MOLT-4 leukemia
HOP-62 NSCLC = tested on: HOP-62 NSCLC
OVCAR-5 ovarian = tested on: OVCAR-5 ovarian
MCF7 breast = tested on: MCF7 breast
SK-MEL-28 melanoma = tested on: SK-MEL-28 melanoma
SK-MEL-2 melanoma = tested on: SK-MEL-2 melanoma
M14 melanoma = tested on: M14 melanoma
EKVX NSCLC = tested on: EKVX NSCLC
ACHN renal = tested on: ACHN renal
SF-268 CNS = tested on: SF-268 CNS
IGROV1 ovarian = tested on: IGROV1 ovarian
PC-3 prostate = tested on: PC-3 prostate
NCI-H460 lung = tested on: NCI-H460 lung
UACC-257 melanoma = tested on: UACC-257 melanoma
HL-60(TB) leukemia = tested on: HL-60(TB) leukemia
CCRF-CEM leukemia = tested on: CCRF-CEM leukemia
DU-145 prostate = tested on: DU-145 prostate
OVCAR-8 ovarian = tested on: OVCAR-8 ovarian
SF-295 CNS = tested on: SF-295 CNS
A549 NSCLC = tested on: A549 NSCLC
SNB-75 CNS = tested on: SNB-75 CNS
HOP-92 NSCLC = tested on: HOP-92 NSCLC
BT-549 breast = tested on: BT-549 breast
OVCAR-3 ovarian = tested on: OVCAR-3 ovarian
MALME-3M melanoma = tested on: MALME-3M melanoma
786-0 renal = tested on: 786-0 renal
SW-620 colon = tested on: SW-620 colon
NCI-H522 lung = tested on: NCI-H522 lung
HCT-15 colon = tested on: HCT-15 colon
COLO 205 colon = tested on: COLO 205 colon
SF-539 CNS = tested on: SF-539 CNS
K-562 leukemia = tested on: K-562 leukemia
NCI-H23 lung = tested on: NCI-H23 lung
NCI-H226 lung = tested on: NCI-H226 lung
A498 renal = tested on: A498 renal
HCT-116 colon = tested on: HCT-116 colon
OVCAR-4 ovarian = tested on: OVCAR-4 ovarian
CAKI-1 renal = tested on: CAKI-1 renal
LOX IMVI melanoma = tested on: LOX IMVI melanoma
T-47D breast = tested on: T-47D breast
MDA-MB-435 = tested on: MDA-MB-435
RXF 393 renal = tested on: RXF 393 renal
MDA-N = tested on: MDA-N
TK-10 renal = tested on: TK-10 renal
SNB-19 CNS = tested on: SNB-19 CNS
HCC-2998 colon = tested on: HCC-2998 colon
RPMI-8226 leukemia = tested on: RPMI-8226 leukemia
HS 578T breast = tested on: HS 578T breast
NCI/ADR-RES ovarian = tested on: NCI/ADR-RES ovarian
U251 CNS = tested on: U251 CNS
HT29 colon = tested on: HT29 colon
UACC-62 melanoma = tested on: UACC-62 melanoma
SK-OV-3 ovarian = tested on: SK-OV-3 ovarian
KM12 colon = tested on: KM12 colon
UO-31 renal = tested on: UO-31 renal

Measured: TGI

O=c1cc(O)c2c(O)cc(O)cc2o1
> 100 µM: SR leukemia | SK-MEL-5 melanoma | SN12C renal | MDA-MB-231 breast | MOLT-4 leukemia | HOP-62 NSCLC | OVCAR-5 ovarian | MCF7 breast | SK-MEL-28 melanoma | SK-MEL-2 melanoma | M14 melanoma | EKVX NSCLC | ACHN renal | SF-268 CNS | IGROV1 ovarian | PC-3 prostate | NCI-H460 lung | UACC-257 melanoma | HL-60(TB) leukemia | CCRF-CEM leukemia | DU-145 prostate | OVCAR-8 ovarian | SF-295 CNS | A549 NSCLC | SNB-75 CNS | HOP-92 NSCLC | BT-549 breast | OVCAR-3 ovarian | MALME-3M melanoma | 786-0 renal | SW-620 colon | NCI-H522 lung | HCT-15 colon | COLO 205 colon | SF-539 CNS | K-562 leukemia | NCI-H23 lung | NCI-H226 lung | A498 renal | HCT-116 colon | OVCAR-4 ovarian | CAKI-1 renal | LOX IMVI melanoma | T-47D breast | MDA-MB-435 | RXF 393 renal | MDA-N | TK-10 renal | SNB-19 CNS | HCC-2998 colon | RPMI-8226 leukemia | HS 578T breast | NCI/ADR-RES ovarian | U251 CNS | HT29 colon | UACC-62 melanoma

CC(=O)OC(=C(C#N)C#N)c1nccnc1C(C)=O
15.7 µM: RXF 393 renal
11.5 µM: COLO 205 colon
11.8 µM: M14 melanoma
> 20 µM: SR leukemia | SK-MEL-5 melanoma | SN12C renal | MDA-MB-231 breast | MOLT-4 leukemia | OVCAR-5 ovarian | MCF7 breast | SK-MEL-28 melanoma | SK-MEL-2 melanoma | EKVX NSCLC | ACHN renal | IGROV1 ovarian | PC-3 prostate | NCI-H460 lung | UACC-257 melanoma | HL-60(TB) leukemia | CCRF-CEM leukemia | DU-145 prostate | OVCAR-8 ovarian | SF-295 CNS | A549 NSCLC | SK-OV-3 ovarian | HOP-92 NSCLC | BT-549 breast | OVCAR-3 ovarian | MALME-3M melanoma | 786-0 renal | SW-620 colon | NCI-H522 lung | HCT-15 colon | SF-539 CNS | K-562 leukemia | NCI-H23 lung | A498 renal | OVCAR-4 ovarian | CAKI-1 renal | LOX IMVI melanoma | T-47D breast | MDA-MB-435 | SNB-19 CNS | UO-31 renal | HCC-2998 colon | HS 578T breast | NCI/ADR-RES ovarian | U251 CNS | UACC-62 melanoma
8.94 µM: HT29 colon
7.67 µM: SF-268 CNS
13.7 µM: NCI-H226 lung
18.6 µM: SNB-75 CNS
17.3 µM: MDA-N
14 µM: KM12 colon
